Experimental data published in patent US20230278972A1, “SUBSTITUTED HALOALKYL SULFONANILIDE HERBICIDES” (FMC Corporation, priority 2020, published 2023).

Columns and labels:
Format in all cases: in vivo
[1] = system: barnyardgrass (Echinochloa crus-galli); experiment: Test B1 flooded paddy test, barnyardgrass; details: 250 g ai/ha, Flood, applied to paddy water, 2-leaf stage, visually evaluated after 10 to 14 days
Source text: (§1) A dash (-) response means no test result.

[2] = system: soybean (Glycine max); experiment: Test A1 preemergence, soybean
Summary of the method: (§2)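 Test compounds were formulated in a non-phytotoxic solvent mixture containing a surfactant. For preemergence, seeds sown in a loam soil–sand blend received a directed soil spray. For postemergence, potted plants in the same soil, 2 to 10 cm tall at the one- to two-leaf stage, were sprayed.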

[3] = system: ducksalad (Heteranthera limosa); experiment: Test B1 flooded paddy test, ducksalad; details: 250 g ai/ha, Flood, applied to paddy water, 2-leaf stage, visually evaluated after 10 to 14 days
Source text: as §1

[4] = system: wheat (Triticum aestivum); experiment: Test A1 preemergence, wheat
Summary of the method: as §2

[5] = system: Oat, Wild (wild oat, Avena fatua); experiment: Test A1 postemergence, Oat, Wild; details: for Plant response rating, Oat, Wild: Postemergence
Summary of the method: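 Plants were grown in a loam soil/sand blend, with test chemicals formulated in a non-phytotoxic solvent mixture containing surfactant. Preemergence treatment (corn) was a directed soil spray at planting. Postemergence treatment was applied to plants 2 to 10 cm tall at the one- to two-leaf stage.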

[6] = system: Oat, Wild (wild oat, Avena fatua); experiment: Test A1 preemergence, Oat, Wild
Summary of the method: as §2

[7] = system: kochia (Bassia scoparia); experiment: Test A1 preemergence, kochia
Summary of the method: as §2

[8] = system: horseweed (Erigeron canadensis); experiment: Test A1 postemergence, horseweed; details: Postemergence
Summary of the method: (§3)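 Plants grown in pots of loam/sand mix; preemergence = soil-directed spray on seeded pots, postemergence = spray at 1–2 leaves, height 2–10 cm; test chemicals formulated in non-phytotoxic solvent with surfactant.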

[9] = system: Ryegrass, Italian (Italian ryegrass, Lolium multiflorum); experiment: Test A1 postemergence, Ryegrass, Italian; details: for Plant response rating, Ryegrass, Italian: Postemergence
Summary of the method: as §3

[10] = system: Pigweed, Palmer (palmer amaranth, palmer pigweed, Amaranthus palmeri); experiment: Test A1 preemergence, Pigweed, Palmer
Summary of the method: as §2

[11] = 31 g ai/ha, 0 to 100 scale (0 no effect, 100 complete control)
[12] = 125 g ai/ha, 0 to 100 scale, 0 no effect, 100 complete control
[13] = 31 g ai/ha, 0 to 100 scale (0 no effect, 100 complete control), 10 days
[14] = 31 g ai/ha, postemergence, 0 to 100 scale (0 no effect, 100 complete control)

Row | SMILES | Plant response rating, Barnyardgrass (0 to 100 scale, 0 is no effect, 100 is complete control) [1] | Plant response rating, Soybean [2, 11] | Plant response rating, Soybean [2, 12] | Plant response rating, Ducksalad (0 to 100 scale, 0 is no effect, 100 is complete control) [3] | Plant response rating, Wheat [4, 11] | Plant response rating, Wheat [4, 12] | Plant response rating, Oat, Wild [5, 13] | Plant response rating, Oat, Wild ([5]; 125 g ai/ha, 0 to 100 scale) | Plant response rating, Oat, Wild [6, 11] | Plant response rating, Oat, Wild [6, 12] | Plant response rating, Kochia [7, 11] | Plant response rating, Kochia [7, 12] | Plant response rating, Horseweed [8, 13] | Plant response rating, Horseweed ([8]; 125 g ai/ha, 0 to 100 scale) | Plant response rating, Ryegrass, Italian [9, 13] | Plant response rating, Ryegrass, Italian ([9]; 125 g ai/ha, 0 to 100 scale) | Plant response rating, Pigweed, Palmer [10, 11] | Plant response rating, Pigweed, Palmer [10, 12] | Oat, Wild plant response rating [5, 14] | Ryegrass, Italian plant response rating [9, 14]
1 | Cc1cc(C)c(N(COC(=O)C(C)(C)C)S(=O)(=O)C(F)(F)F)cc1C(=O)N1CCC(c2ccccc2)CC1 [Compound 364] | 0 | 0 | 0 | 0 | 0 | 0 | 0 | 0 | 0 | 0 | 0 | 0 | 0 | 0 | 0 | 0 | 0 | 0 | – | –
2 | Cc1c(C(=O)N2CCCCC2)cc(N(COC(=O)C(C)(C)C)S(=O)(=O)C(F)(F)F)c(C)c1C [Compound 329, [[(Trifluoromethyl)sulfonyl][2,3,4-trimethyl-5-(1-piperidinylcarbonyl)phenyl]amino]methyl 2,2-dimethylpropanoate] | 95 | 0 | 0 | 60 | 0 | 0 | 0 | 0 | 0 | 0 | 0 | 30 | 20 | 90 | 0 | 0 | 10 | 50 | – | –
3 | Cc1cc(C)c(N(COC(=O)C(C)C)S(=O)(=O)C(F)(F)F)cc1C1=NOC2CCCC12 (centres unmarked) [Compound 308] | 95 | 0 | 30 | 90 | 20 | 80 | 0 | 0 | 0 | 50 | 20 | 70 | 0 | 60 | 0 | 30 | 40 | 70 | – | –
4 | Cc1c(C(=O)N(C)C)cc(NS(=O)(=O)C(F)(F)F)c(Cl)c1F [Compound 320] | 0 | 20 | 40 | 60 | 10 | 50 | 0 | 0 | 0 | 0 | 20 | 50 | 50 | 70 | 0 | 40 | 50 | 100 | – | –
5 | Cc1cc(C)c(C2=NOC(OCC(C)C)C2)cc1NS(=O)(=O)C(F)(F)F (centres unmarked) [Compound 322] | 55 | 0 | 0 | 0 | 0 | 50 | 0 | 0 | 0 | 30 | 0 | 20 | 0 | 40 | 0 | 40 | 40 | 90 | – | –
6 | Cc1cc(C)c(N(COC(=O)C(C)(C)C)S(=O)(=O)C(F)(F)F)cc1C(=O)N1CCOCC1 [Compound 362] | 95 | 10 | 40 | 50 | 20 | 70 | 0 | 10 | 0 | 30 | 50 | 90 | 90 | 90 | 30 | 90 | 10 | 80 | – | –
7 | CCOC(=O)N(c1cc(C(=O)N2CCOCC2)c(C)cc1C)S(=O)(=O)C(F)(F)F [Compound 363] | 50 | 10 | 30 | 70 | 40 | 90 | 20 | 50 | 30 | 70 | 80 | 100 | 80 | 90 | 20 | 90 | 90 | 100 | – | –
8 | Cc1cc(C)c(N(S(=O)(=O)C(F)(F)F)S(=O)(=O)C(F)(F)F)cc1C1=NOC2COCC12 (centres unmarked) [Compound 296] | 30 | 20 | 30 | 20 | 10 | 90 | 0 | 10 | 0 | 10 | 60 | 90 | 70 | 80 | 0 | 40 | 10 | 80 | – | –
9 | CCC1CC(c2cc(NS(=O)(=O)C(F)(F)F)c(C)cc2C)=NO1 (centres unmarked) [Compound 375] | 50 | 0 | 30 | 60 | 0 | 100 | – | 0 | 0 | 20 | 0 | 70 | – | 50 | – | 40 | 0 | 80 | 0 | 0
10 | Cc1cc(Br)c(NS(=O)(=O)C(F)(F)F)cc1C1=NOC2(CCCC2)C1 [Compound 309] | 0 | 0 | 0 | 60 | 0 | 60 | 0 | 20 | 20 | 60 | 0 | 50 | 10 | 20 | 0 | 30 | 40 | 40 | – | –
11 | COC1CCCN(C(=O)c2cc(NS(=O)(=O)C(F)(F)F)c(Cl)c(F)c2C)C1 (centres unmarked) [Compound 334] | 15 | 0 | 30 | 60 | 0 | 0 | 0 | 0 | 10 | 20 | 0 | 20 | 0 | 30 | 0 | 0 | 20 | 70 | – | –
12 | Cc1cc(C(F)(F)F)c(C2=NOC3CCCC23)cc1NS(=O)(=O)C(F)(F)F (centres unmarked) [Compound 306] | 0 | 0 | 0 | 85 | 0 | 0 | 0 | 20 | 0 | 10 | 0 | 30 | 0 | 40 | 0 | 10 | 50 | 100 | – | –
